According to patent US7592326B2, “Method for stimulating the immune, inflammatory or neuroprotective response” (priority 2004, dated 2009):

Experiments:
[1] = test system: monocytes and granulocytes; assay: Monocyte and granulocyte recruitment after intraperitoneal injection (FACS of peritoneal fluid); format: in vivo, C57BL/6 mice
Protocol: C57BL/6 mice were injected with a volume of 500 ul containing 200 nmol c-di-GMP. […] Fluid was incubated in PBS BSA azide +24G2 (anti Fc) for 15 min at 4° C., washed in PBS, washed in PBS then stained and analyzed by FACs analysis (PBS BSA azide, 30 min 4° C.). Cells were stained with directly coupled fluorescent mAbs combinations in […] FACS buffer and further collected on a FACScalibur cytofluorometer (Becton Dickinson, BD). The following mAbs were purchased: fluorescein (FITC)-coupled M1/70 (anti-CD11b, BD Pharmingen), phycoerythrin (PE)-coupled 1A8 (anti-LY-6G, BD Pharmingen), 7/4 (Caltag), allophycocyanin (APC)-coupled F4/80 (Caltag). Cells were gated according to size and scatter to eliminate dead cells and debris from analysis.

JNK = assay: Signaling in human DCs: JNK; format: cell-based; conditions: under the conditions tested
Protocol: Human PBMC were isolated by Ficoll density gradient centrifugation from leukopacks supplied by the Department of Transfusion Medicine (Clinical Center, National Institute of Health, Bethesda, Md.). Monocytes were purified (>95%) from human PBMC with MACS CD14 monocyte isolation kit (Miltenyi Biotech Inc., Auburn, Calif.) according to the manufacturer's instruction. DCs were generated as described previously (Yang et al., 2001). In brief, DCs were generated by incubating purified monocytes at 2×10^5/ml in RPMI 1640 containing 10% FBS, 2 mM glutamine, 25 mM HEPES, 100 U/ml penicillin, 100 ug/ml streptomycin, 50 ng/ml recombinant human GM-CSF (PeproTech, Rocky Hill, N.J.), and 50 ng/ml recombinant human IL-4 (PeproTech) at 37° C. in a CO2 (5%) incubator for 7 days. On day 3 and 5 of the incubation, half of the culture medium was replaced with pre-warmed (37° C.) fresh GM-CSF- and IL-4-containing medium. On day 7, DCs were collected, washed three times with PBS, and serum-starved for 8 hours by incubating in serum-free RPMI-1640 containing GM-CSF and IL-4 (2×10^5/ml) at 37° C. in a CO2 (5%) incubator. Subsequently, DCs (2×10^6/sample) were incubated at 37° C. in the absence or presence of c-di-GMP or GMP (Sigma, St. Louis, Mo.) at concentrations specified for 5 or 30 minutes. […]

[2] = test system: Influenza virus B/Yamanashi/166/98; assay: Influenza vaccination model in mice, c-diGMP as adjuvant (proposed); format: in vivo; conditions: two vaccinations 3 weeks apart

Nc1nc(=O)c2ncn([C@@H]3OC4COP(=O)(O)O[C@H]5[C@@H](O)[C@H](n6cnc7c(=O)nc(N)[nH]c76)O[C@@H]5COP(=O)(O)OC4C3O)c2[nH]1 (stereo partly shown) [c-di-GMP, Bis(3′→5′)-cyclic diguanylic acid]
recruitment of F4/80^high LY-6G^med (monocytes) and F4/80^med LY-6G^high (granulocytes) ([1]; 200 nmol i.p., peritoneal lavage at 18 hours): induced the recruitment | macrophage and granulocyte recruitment in vivo relative to comparators ([1]; under the conditions tested): to a greater extent than CpG ODN and LPS | activation of JNK (JNK): did not activate | survival after challenge [2]: greater survival
